Measured values reported in ChEMBL document CHEMBL1201862, “PubChem BioAssay data set” (2004).
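All cell lines were grown in 96-well plates and treated with compound for 48 hours. Here, GI50 denotes the concentration required for 50% inhibition of growth.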 Calls of active or inactive are those of the source. Cut-off read from the data, not from the text of the source: active = GI50 up to about 1.1 µM and inactive = higher.

Columns and labels:
Test in all cases: NCI anticancer screen, dose series, 48 h
[1] = system: MDA-MB-231
[2] = system: HT-29
[3] = system: UO-31
[4] = system: NCI-H460
[5] = system: SNB-75
[6] = system: HOP-92
[7] = system: IGROV-1
[8] = system: U-251
[9] = system: UACC-62
[10] = system: A498
[11] = system: SK-MEL-5
[12] = system: MCF7
[13] = system: SNB-19
[14] = system: ACHN
[15] = system: EKVX
[16] = system: HCC 2998
[17] = system: UACC-257
[18] = system: SN12C
[19] = system: SF-268
[20] = system: SK-OV-3

SMILES	GI50 [1]	GI50 [2]	GI50 [3]	GI50 [4]	GI50 [5]	GI50 [6]	GI50 [7]	GI50 [8]	GI50 [9]	GI50 [10]	GI50 [11]	GI50 [12]	GI50 [13]	GI50 [14]	GI50 [15]	GI50 [16]	GI50 [17]	GI50 [18]	GI50 [19]	GI50 [20]
CC(C)O/N=C/c1cc(NC(=S)OC(C)C)ccc1Cl	19.1 µM (inactive)	23.1 µM (inactive)	21.7 µM (inactive)	42.3 µM (inactive)	18.5 µM (inactive)	> 44.2 µM (inactive)	28.2 µM (inactive)	32.2 µM (inactive)	29.7 µM (inactive)	44.7 µM (inactive)	23 µM (inactive)	23.5 µM (inactive)	> 54.8 µM (inactive)	35.2 µM (inactive)	19.1 µM (inactive)	45.2 µM (inactive)	> 100 µM (inactive)	31.6 µM (inactive)	36.1 µM (inactive)	38.8 µM (inactive)
CN(C)CC1CCC/C(=C\c2ccc(OC(=O)/C=C/c3ccccc3)cc2)C1=O (stereo not given)	2.73 µM (inactive)	1.87 µM (inactive)	1.83 µM (inactive)	4.88 µM (inactive)	6.04 µM (inactive)	2.22 µM (inactive)	3.85 µM (inactive)	1.72 µM (inactive)	3.34 µM (inactive)	7.28 µM (inactive)	3.64 µM (inactive)	0.208 µM (active)	5.35 µM (inactive)	2.51 µM (inactive)	2.18 µM (inactive)	10.5 µM (inactive)	3.48 µM (inactive)	2.01 µM (inactive)	3.37 µM (inactive)	24.2 µM (inactive)
NS(=O)(=O)c1ccc(N=C2C(=O)Nc3ccccc32)cc1	> 100 µM (inactive)	> 100 µM (inactive)	> 100 µM (inactive)	> 100 µM (inactive)	> 100 µM (inactive)	> 100 µM (inactive)	> 100 µM (inactive)	> 100 µM (inactive)	> 100 µM (inactive)	> 100 µM (inactive)	36.8 µM (inactive)	90.2 µM (inactive)	> 100 µM (inactive)	> 100 µM (inactive)	> 100 µM (inactive)	> 100 µM (inactive)	> 100 µM (inactive)	> 100 µM (inactive)	> 100 µM (inactive)	> 100 µM (inactive)
CO[C@]12CC(=O)C3(C(C[C@H]4CC5CC[C@H]6C[C@@H](OC(C)=O)CC[C@]6(OC(C)=O)C5C[C@@]43C)C1)C1C[C@H]3[C@@H]4CC[C@H]5C[C@@H](OC(C)=O)CC[C@]5(OC(C)=O)[C@H]4CC[C@]3(C)C12 (stereo not given in full)	> 100 µM (inactive)	82.4 µM (inactive)	> 100 µM (inactive)	66.5 µM (inactive)	> 100 µM (inactive)	> 100 µM (inactive)	> 100 µM (inactive)	75.5 µM (inactive)	84.3 µM (inactive)	> 100 µM (inactive)	24.4 µM (inactive)	80.5 µM (inactive)	82.8 µM (inactive)	> 100 µM (inactive)	> 100 µM (inactive)	59.2 µM (inactive)	> 100 µM (inactive)	> 100 µM (inactive)	> 100 µM (inactive)	> 100 µM (inactive)
C=CC(C)(O)CCC1C(=C)C(O)CC2C(C)(C)CCCC12C (stereo not given)	17.7 µM (inactive)	17.8 µM (inactive)	15.2 µM (inactive)	16.9 µM (inactive)	48.3 µM (inactive)	17.3 µM (inactive)	24.3 µM (inactive)	15.5 µM (inactive)	16 µM (inactive)	18.3 µM (inactive)	16 µM (inactive)	23.2 µM (inactive)	18.1 µM (inactive)	26 µM (inactive)	19.1 µM (inactive)	18.6 µM (inactive)	19 µM (inactive)	18.9 µM (inactive)	19.9 µM (inactive)	33.3 µM (inactive)
CCOC(=O)C(SCCO)C(C(=O)OCC)n1cc(C)c(=O)[nH]c1=O (stereo not given)	15.9 µM (inactive)	12.9 µM (inactive)	22.9 µM (inactive)	21.5 µM (inactive)	34.1 µM (inactive)	15.6 µM (inactive)	25.4 µM (inactive)	11.5 µM (inactive)	16.3 µM (inactive)	20.4 µM (inactive)	23.2 µM (inactive)	11.6 µM (inactive)	62.1 µM (inactive)	8.75 µM (inactive)	30.7 µM (inactive)	27.4 µM (inactive)	28.2 µM (inactive)	10.7 µM (inactive)	29.3 µM (inactive)	> 79.3 µM (inactive)
COc1ccccc1C(O)[C@@H]1C[C@@H]2[C@H]3CC[C@@](C)([C@@H]2O1)C3(C)C (stereo not given in full)	17.3 µM (inactive)	19.4 µM (inactive)	17.9 µM (inactive)	19.5 µM (inactive)	16.9 µM (inactive)	15.8 µM (inactive)	15.9 µM (inactive)	16.5 µM (inactive)	16.6 µM (inactive)	15.4 µM (inactive)	17.3 µM (inactive)	19 µM (inactive)	22.8 µM (inactive)	19.1 µM (inactive)	45.2 µM (inactive)	20.8 µM (inactive)	20.3 µM (inactive)	16.4 µM (inactive)	22.9 µM (inactive)	27.4 µM (inactive)
CCCCCCCC(CC(=O)NC(CO)C(=O)NC(CO)CC(C)C)OC(=O)CC(CCCCCCC)OC(=O)CC(CCCCCCC)OC1OC(C)C(O)C(OC2OC(C)C(O)C(O)C2OC(C)=O)C1O (stereo not given)	9.38 µM (inactive)	3.6 µM (inactive)	16.9 µM (inactive)	4.07 µM (inactive)	4.29 µM (inactive)	10.2 µM (inactive)	10.9 µM (inactive)	7.03 µM (inactive)	5.9 µM (inactive)	15.8 µM (inactive)	10.1 µM (inactive)	10.5 µM (inactive)	8.26 µM (inactive)	15.5 µM (inactive)	14.3 µM (inactive)	12.5 µM (inactive)	2.99 µM (inactive)	4.47 µM (inactive)	5.89 µM (inactive)	16.6 µM (inactive)
Cc1ccc(NC(c2ccccc2)P(=O)(c2ccccc2)c2ccccc2)cc1 (stereo not given)	> 100 µM (inactive)	> 100 µM (inactive)	> 100 µM (inactive)	> 100 µM (inactive)	13.7 µM (inactive)	27.2 µM (inactive)	> 100 µM (inactive)	> 100 µM (inactive)	> 100 µM (inactive)	> 100 µM (inactive)	> 100 µM (inactive)	> 100 µM (inactive)	53.7 µM (inactive)	63.7 µM (inactive)	> 100 µM (inactive)	> 100 µM (inactive)	> 100 µM (inactive)	> 100 µM (inactive)	71.3 µM (inactive)	> 100 µM (inactive)
Cc1nc2c(Br)cc(Br)cc2c(=O)n1-c1ccccc1NC1OC(CO)C(O)C(O)C1O (stereo not given)	> 100 µM (inactive)	> 100 µM (inactive)	> 100 µM (inactive)	> 100 µM (inactive)	61.1 µM (inactive)	> 100 µM (inactive)	> 100 µM (inactive)	> 100 µM (inactive)	> 100 µM (inactive)	> 100 µM (inactive)	> 100 µM (inactive)	> 100 µM (inactive)	> 100 µM (inactive)	> 100 µM (inactive)	> 100 µM (inactive)	> 100 µM (inactive)	> 100 µM (inactive)	> 100 µM (inactive)	> 100 µM (inactive)	> 100 µM (inactive)
N#CC(NNC(=O)Cc1ccccc1)c1ccccc1O (stereo not given)	8.2 µM (inactive)	9.18 µM (inactive)	4.54 µM (inactive)	6.84 µM (inactive)	21.3 µM (inactive)	23.3 µM (inactive)	21.2 µM (inactive)	6.15 µM (inactive)	5.28 µM (inactive)	> 48.9 µM (inactive)	10.6 µM (inactive)	10.2 µM (inactive)	21.3 µM (inactive)	6.56 µM (inactive)	8.41 µM (inactive)	12.7 µM (inactive)	14 µM (inactive)	23.3 µM (inactive)	9.04 µM (inactive)	14.5 µM (inactive)
CN(C)CCNC1=CC(=O)c2c(O)ccc(O)c2C1=O	11.7 µM (inactive)	2.59 µM (inactive)	12.4 µM (inactive)	3.3 µM (inactive)	17.1 µM (inactive)	14.2 µM (inactive)	6.17 µM (inactive)	11.9 µM (inactive)	2.33 µM (inactive)	14.8 µM (inactive)	1.67 µM (inactive)	2.49 µM (inactive)	16 µM (inactive)	11.5 µM (inactive)	12.8 µM (inactive)	3.88 µM (inactive)	2.36 µM (inactive)	6.47 µM (inactive)	12.3 µM (inactive)	28.6 µM (inactive)
NCS(=O)(=O)O	> 100 µM (inactive)	> 100 µM (inactive)	> 100 µM (inactive)	35.2 µM (inactive)	> 100 µM (inactive)	> 100 µM (inactive)	> 100 µM (inactive)	> 100 µM (inactive)	> 100 µM (inactive)	> 100 µM (inactive)	> 100 µM (inactive)	> 100 µM (inactive)	> 100 µM (inactive)	> 100 µM (inactive)	> 100 µM (inactive)	> 100 µM (inactive)	> 100 µM (inactive)	> 100 µM (inactive)	> 100 µM (inactive)	> 100 µM (inactive)
